Experimental data reported in patent US20050080046A1, “Storage stable eplerenone formulation” (priority 2002, published 2005).
In brackets after ≈: the same amount, converted by molar mass.

What was measured:
[1] = Solubility of eplerenone in pure solubilizers at room temperature; type: physicochemical; details: organic solvent or mixture
Experimental: Preparation of a pharmaceutically acceptable parenteral eplerenone formulation is therefore made difficult by the fact that (a) the solubility of eplerenone in many otherwise parenterally acceptable solubilizers, even in such solubilizers in pure form, is very low, (b) eplerenone dose requirements are relatively high (e.g. about 50 mg/day or more), and (c) the concentration and/or total amount of many parenterally acceptable solubilizers which can be safely parenterally delivered to a subject is relatively low.

[2] = Storage stability of eplerenone solution formulations SF-2 to SF-5 at different pH, HPLC (Example 2); type: physicochemical; details: storage at various temperatures and for various time periods
Excerpt: The pH of each formulation was adjusted as indicated.
Aliquots of each solution formulation were stored at four different temperatures for a period of 12 weeks. Degradation of eplerenone was monitored via high performance liquid chromatography (HPLC) throughout storage.
Cells in Table 3 which have the symbol “--” therein indicate that no stability data was collected for that particular time and storage temperature.

solubility ([1]; pure glycerin, room temperature): < 1600 µg/mL
solubility ([1]; pure polyethylene glycol 400, room temperature): 3300 to 5700 µg/mL (≈ 7.96 to 13.8 mM)
solubility ([1]; pure propylene glycol, room temperature): < 300 µg/mL
SMILES: COC(=O)[C@@H]1CC2=CC(=O)CC[C@]2(C)[C@@]23O[C@@H]2C[C@@]2(C)[C@@H](CC[C@@]24CCC(=O)O4)[C@H]13 [eplerenone, methyl hydrogen 9,11α-epoxy-17α-hydroxy-3-oxopregn-4-ene-7α,21-dicarboxylate, γ-lactone]
stability of eplerenone in solution by pH (in words) [2]: more stable in a solution maintained at a pH of 5 than at a pH of 2, 7 or 9
